Ends that are not written are not given here.
Test: Pharmacokinetics of injected peptide in mice (ELISA)
Format: in vivo
Details: ELISA detection
Text: FIG. 19. Detection of MENTSH mRNA and peptide and pharmacokinetics of injected peptide in mice. Northern blot hybridization identified the presence of MENTSH transcript in mitochondrial mRNA.
Northern blot hybridization identified the presence of MENTSH transcript in mitochondrial mRNA (FIG. 19). Further, the Inventors developed an ELISA assay for detection of MENTSH. […] Increasing persistent bioavailability of MENTSH by analogs, or other artificial modifications may further improve biological effects for therapeutic use.

persistence of injected peptide: ~1 h
Sequence: MKPNPATQNLSMLLNYPH [MENTSH, MKPNPATQNLSMLLNYPH]
